These are literature values, as cited in patent US10689308B2, “Solvent for thiophosphoric triamide or dicyandiamide solutions, and related methods” (RHODIA OPERATIONS, priority 2014, dated 2020).

The conditions of the data set: dicyandiamide in a solid form; background statement.

On to `N#CNC(=N)N` [Dicyandiamide], for which the solubility in water result is given as “about 41 grams per liter”.
